Results as given in patent publication US4507487A, “Chemical compounds” (Bristol-Myers Company, priority 1983, dated 1985).
Values after ≈ are worked out from the molar mass of the structure shown. Like-named read-outs stand apart in the source and are kept apart here.

Experiments:
Type in all cases: cell-based
[1] = system: Cephalothinresistant E. coli and Kl. pneumoniae; experiment: MIC, two-fold serial agar dilution in Mueller-Hinton agar, group (G-)-Ib; conditions: read-out: Geometric Mean of MIC
Experimental: (§1) In the primary evaluation of the compounds of this invention, the Minimum Inhibitory Concentrations (MIC's) of the compounds were determined by the two-fold serial agar dilution method in Mueller-Hinton agar against 32 strains of test organisms in six groups.
(G-)Ib: Cephalothinresistant E. coli (3 strains) and Kl. pneumoniae (3

[2] = system: Penicillinresistant S. aureus; experiment: MIC, two-fold serial agar dilution in Mueller-Hinton agar, group (G+)-Ib; conditions: Staphylococcus aureus, read-out: Geometric Mean of MIC
Experimental: as §1
(G+)Ib: Penicillinresistant S. aureus (5 strains)

[3] = system: K. pneumoniae A9867; experiment: MIC against specific test organism; conditions: Klebsiella pneumoniae; K. pneumoniae A9867, cephalothin-resistant strain; read-out: Minimum Inhibitory Concentration
Experimental: as §1
(§2) The test method was as described for Table 1.

[4] = system: Ps. aeruginosa A15150; experiment: MIC against specific test organism; conditions: Pseudomonas aeruginosa, read-out: Minimum Inhibitory Concentration
Experimental: as §1, §2

[5] = system: S. aureus BX-1633-2; experiment: MIC against specific test organism; conditions: Staphylococcus aureus, BX16332; S. aureus BX-1633-2, penicillin-resistant strain; read-out: Minimum Inhibitory Concentration
Experimental: as §1, §2

[6] = system: Ser. marcescens A20019; experiment: MIC against specific test organism; conditions: Serratia marcescens, read-out: Minimum Inhibitory Concentration
Experimental: as §1, §2

[7] = system: Ps. aeruginosa A9843; experiment: MIC against specific test organism; conditions: Pseudomonas aeruginosa, read-out: Minimum Inhibitory Concentration
Experimental: as §1, §2

[8] = system: Ent. cloacae A9656; experiment: MIC against specific test organism; conditions: Enterobacter cloacae, read-out: Minimum Inhibitory Concentration
Experimental: as §1, §2

[9] = system: E. coli Juhl; experiment: MIC against specific test organism; conditions: Escherichia coli, read-out: Minimum Inhibitory Concentration
Experimental: as §1, §2

[10] = system: K. pneumoniae D11; experiment: MIC against specific test organism; conditions: Klebsiella pneumoniae, read-out: Minimum Inhibitory Concentration
Experimental: as §1, §2

[11] = system: Ps. aeruginosa A20717; experiment: MIC against specific test organism; conditions: Pseudomonas aeruginosa, read-out: Minimum Inhibitory Concentration
Experimental: as §1, §2

[12] = system: S. aureus Smith; experiment: MIC against specific test organism; conditions: Staphylococcus aureus, read-out: Minimum Inhibitory Concentration
Experimental: as §1, §2

[13] = system: M. morganii A9553; experiment: MIC against specific test organism; conditions: Morganella morganii, read-out: Minimum Inhibitory Concentration
Experimental: as §1, §2

[14] = system: Pr. mirabilis A9554; experiment: MIC against specific test organism; conditions: Proteus mirabilis, read-out: Minimum Inhibitory Concentration
Experimental: as §1, §2

[15] = system: E. coli A15164; experiment: MIC against specific test organism; conditions: Escherichia coli; E. coli A15164, cephalothin-resistant strain; read-out: Minimum Inhibitory Concentration
Experimental: as §1, §2

[16] = system: Cephalothinsensitive E. coli, Kl. pneumoniae and Pr. mirabilis; experiment: MIC, two-fold serial agar dilution in Mueller-Hinton agar, group (G-)-Ia; conditions: read-out: Geometric Mean of MIC
Experimental: as §1
(G-)Ia: Cephalothinsensitive E. coli (2 strains), Kl. pneumoniae (1
strain) and Pr. mirabilis (2 strains)

[17] = system: Ps. aeruginosa; experiment: MIC, two-fold serial agar dilution in Mueller-Hinton agar, group (G-)-III; conditions: Pseudomonas aeruginosa, Ps. aeruginosa (6 strains), read-out: Geometric Mean of MIC
Experimental: as §1

[18] = system: Penicillinsensitive S. aureus; experiment: MIC, two-fold serial agar dilution in Mueller-Hinton agar, group (G+)-Ia; conditions: Staphylococcus aureus, read-out: Geometric Mean of MIC
Experimental: as §1

[19] = system: M. morganii, Ent. cloacae and Ser. marcescens; experiment: MIC, two-fold serial agar dilution in Mueller-Hinton agar, group (G-)-II; conditions: read-out: Geometric Mean of MIC
Experimental: as §1
(G-)II: M. morganii (1 strain), Ent. cloacae (2 strains) and Ser.

[20] = (G-)-Ia, cephalothin-sensitive E. coli (2), Kl. pneumoniae (1), Pr. mirabilis (2 strains)
[21] = (G+)-Ia, penicillin-sensitive S. aureus (5 strains)
[22] = (G+)-Ib, penicillin-resistant S. aureus (5 strains)
[23] = (G-)-II, M. morganii (1), Ent. cloacae (2), Ser. marcescens (2 strains)

| Structure (SMILES) | MIC [1] | MIC [16, 20] | MIC [17] | MIC [18, 21] | MIC [19] | MIC [2, 22] | MIC [19, 23] | also measured |
| --- | --- | --- | --- | --- | --- | --- | --- | --- |
| CCO/N=C(\C(=O)NC1C(=O)N2C(C(=O)[O-])=C(C[n+]3ccsc3SC)CS[C@H]12)c1csc(N)n1 (stereo partly shown) [Example 4, 7-[(Z)-2-(2-Aminothiazol-4-yl)-2-(ethoxyimino)acetamido]-3-(2-methylthiothiazolio)methyl-3-cephem-4-carboxylate] | 0.32 µg/mL (≈ 0.592 µM) | 0.076 µg/mL (≈ 0.141 µM) | 5.6 µg/mL (≈ 10.4 µM) | 0.35 µg/mL (≈ 0.647 µM) | 0.69 µg/mL (≈ 1.28 µM) | – | – | MIC [2]: 0.61 µg/mL (≈ 1.13 µM); MIC [3]: 1.6 µg/mL (≈ 2.96 µM); MIC [4]: 3.1 µg/mL (≈ 5.73 µM); MIC [5]: 0.4 µg/mL (≈ 0.74 µM); MIC [6]: 0.1 µg/mL (≈ 0.185 µM); MIC [7]: 12.5 µg/mL (≈ 23.1 µM); MIC [8]: 0.2 µg/mL (≈ 0.37 µM); MIC [9]: 0.1 µg/mL (≈ 0.185 µM); MIC [10]: 0.1 µg/mL (≈ 0.185 µM); MIC [11]: 12.5 µg/mL (≈ 23.1 µM); MIC [12]: 0.4 µg/mL (≈ 0.74 µM); MIC [13]: 0.4 µg/mL (≈ 0.74 µM); MIC [14]: 0.2 µg/mL (≈ 0.37 µM); MIC [15]: 0.2 µg/mL (≈ 0.37 µM) |
| CC(C)(O/N=C(\C(=O)NC1C(=O)N2C(C(=O)[O-])=C(C[n+]3ccsc3)CSC12)c1csc(N)n1)C(=O)O (stereo not shown) [Example 5, 7-[(Z)-2-(2-Aminothiazol-4-yl)-2-(2-carboxyprop-2-oxyimino)acetamido]-3-thiazoliomethyl-3-cephem-4-carboxylate] | 2.5 µg/mL (≈ 4.52 µM) | 0.13 µg/mL (≈ 0.235 µM) | 3.1 µg/mL (≈ 5.61 µM) | 8.3 µg/mL (≈ 15 µM) | 3.6 µg/mL (≈ 6.51 µM) | 25 µg/mL (≈ 45.2 µM) | – | – |
| Cc1c(CCO)sc[n+]1CC1=C(C(=O)[O-])N2C(=O)C(NC(=O)/C(=N\OC(C)(C)C(=O)O)c3csc(N)n3)C2SC1 (stereo not shown) [Example 6, 7-[(Z)-2-(2-Aminothiazol-4-yl)-2-(2-carboxyprop-2-oxyimino)acetamido]-3-[5-(2-hydroxyethyl)-4-methylthiazolio]methyl-3-cephem-4-carboxylate] | 1.8 µg/mL (≈ 2.95 µM) | 0.076 µg/mL (≈ 0.124 µM) | 4.4 µg/mL (≈ 7.2 µM) | 8.3 µg/mL (≈ 13.6 µM) | – | 25 µg/mL (≈ 40.9 µM) | 2.8 µg/mL (≈ 4.58 µM) | – |
| Cc1csc[n+]1CC1=C(C(=O)[O-])N2C(=O)C(NC(=O)/C(=N\OC(C)(C)C(=O)O)c3csc(N)n3)C2SC1 (stereo not shown) [Example 7, 7-[(Z)-2-(2-Aminothiazol-4-yl)-2-(2-carboxyprop-2-oxyimino)acetamido]-3-(4-methylthiazolio)methyl-3-cephem-4-carboxylate] | 1.8 µg/mL (≈ 3.18 µM) | 0.076 µg/mL (≈ 0.134 µM) | 4 µg/mL (≈ 7.06 µM) | 7.2 µg/mL (≈ 12.7 µM) | – | 12.5 µg/mL (≈ 22.1 µM) | 2.8 µg/mL (≈ 4.94 µM) | – |
| CC(C)(O/N=C(\C(=O)NC1C(=O)N2C(C(=O)[O-])=C(C[n+]3ccsc3N)CS[C@H]12)c1csc(N)n1)C(=O)O (stereo partly shown) [Example 8, 7-[(Z)-2-(2-Aminothiazol-4-yl)-2-(2-carboxyprop-2-oxyimino)acetamido]-3-(2-amino-3-thiazolio)methyl-3-cephem-4-carboxylate] | 4 µg/mL (≈ 7.05 µM) | 0.15 µg/mL (≈ 0.264 µM) | 5.6 µg/mL (≈ 9.87 µM) | 5.5 µg/mL (≈ 9.69 µM) | – | 14 µg/mL (≈ 24.7 µM) | 8.3 µg/mL (≈ 14.6 µM) | – |
| COc1sc[n+](CC2=C(C(=O)[O-])N3C(=O)C(NC(=O)/C(=N\OC(C)(C)C(=O)O)c4csc(N)n4)C3SC2)c1C (stereo not shown) [Example 9, 7-[(Z)-2-(2-Aminothiazol-4-yl)-2-(2-carboxyprop-2-oxyimino)acetamido]-3-(5-methoxy-4-methylthiazolio)methyl-3-cephem-4-carboxylate] | 1.6 µg/mL (≈ 2.68 µM) | 0.1 µg/mL (≈ 0.168 µM) | 6.3 µg/mL (≈ 10.6 µM) | 9.5 µg/mL (≈ 15.9 µM) | – | – | 2.8 µg/mL (≈ 4.69 µM) | MIC [2]: 16 µg/mL (≈ 26.8 µM) |
| CO/N=C(\C(=O)NC1C(=O)N2C(C(=O)[O-])=C(C[n+]3csc(CCN)c3C)CSC12)c1csc(N)n1 (stereo not shown) [Example 10, 7-[(Z)-2-(2-Aminothiazol-4-yl)-2-methoxyiminoacetamido]-3-[5-(2-aminoethyl)-4-methylthiazolio]methyl-3-cephem-4-carboxylate] | 1.4 µg/mL (≈ 2.6 µM) | 0.8 µg/mL (≈ 1.49 µM) | 22 µg/mL (≈ 40.9 µM) | 2.1 µg/mL (≈ 3.91 µM) | 5.5 µg/mL (≈ 10.2 µM) | 6.3 µg/mL (≈ 11.7 µM) | – | – |
| Cc1scc[n+]1CC1=C(C(=O)[O-])N2C(=O)C(NC(=O)/C(=N\OC3(C(=O)O)CCC3)c3csc(N)n3)[C@H]2SC1 (stereo partly shown) [Example 11, 7-[(Z)-2-(2-Aminothiazol-4-yl)-2-(1-carboxycyclobut-1-oxyimino)acetamido]-3-(2-methylthiazolio)methyl-3-cephem-4-carboxylate] | 1.6 µg/mL (≈ 2.77 µM) | 0.076 µg/mL (≈ 0.131 µM) | 2.1 µg/mL (≈ 3.63 µM) | 4.2 µg/mL (≈ 7.26 µM) | – | 9.5 µg/mL (≈ 16.4 µM) | 0.4 µg/mL (≈ 0.691 µM) | – |
| CCSc1scc[n+]1CC1=C(C(=O)[O-])N2C(=O)C(NC(=O)/C(=N\OC3(C(=O)O)CCC3)c3csc(N)n3)[C@H]2SC1 (stereo partly shown) [Example 12, 7-[(Z)-2-(2-Aminothiazol-4-yl)-2-(1-carboxycyclobut-1-oxyimino)acetamido]-3-(2-ethylthiothiazolio)methyl-3-cephem-4-carboxylate] | 0.79 µg/mL (≈ 1.26 µM) | 0.066 µg/mL (≈ 0.106 µM) | 5.7 µg/mL (≈ 9.12 µM) | 1.8 µg/mL (≈ 2.88 µM) | – | 4.7 µg/mL (≈ 7.52 µM) | 0.4 µg/mL (≈ 0.64 µM) | – |
| CC(C)(O/N=C(\C(=O)NC1C(=O)N2C(C(=O)[O-])=C(C[n+]3ccsc3SCC(=O)O)CS[C@H]12)c1csc(N)n1)C(=O)O (stereo partly shown) [Example 13, 7-[(Z)-2-(2-Aminothiazol-4-yl)-2-(2-carboxyprop-2-oxyimino)acetamido]-3-(2-carboxymethylthiothiazolio)methyl-3-cephem-4-carboxylate] | 4 µg/mL (≈ 6.22 µM) | 0.26 µg/mL (≈ 0.405 µM) | 23 µg/mL (≈ 35.8 µM) | 25 µg/mL (≈ 38.9 µM) | – | 50 µg/mL (≈ 77.8 µM) | 1.6 µg/mL (≈ 2.49 µM) | – |
| CC(C)(O/N=C(\C(=O)NC1C(=O)N2C(C(=O)[O-])=C(C[n+]3ccsc3NC=O)CS[C@H]12)c1csc(N)n1)C(=O)O (stereo partly shown) [Example 14, 7-[2-(Z)-(2-Aminothiazol-4-yl)-2-(2-carboxyprop-2-yloxyimino)acetamido]-3-(2-formylaminothiazolio)methyl-3-cephem-4-carboxylate] | 3.6 µg/mL (≈ 6.04 µM) | 0.15 µg/mL (≈ 0.252 µM) | 7 µg/mL (≈ 11.8 µM) | 5.5 µg/mL (≈ 9.23 µM) | – | 12.5 µg/mL (≈ 21 µM) | 3.2 µg/mL (≈ 5.37 µM) | – |
| CNc1scc[n+]1CC1=C(C(=O)[O-])N2C(=O)C(NC(=O)/C(=N\OC(C)(C)C(=O)O)c3csc(N)n3)[C@H]2SC1 (stereo partly shown) [Example 15, 7-[(Z)-2-(2-Aminothiazol-4-yl)-2-(2-carboxyprop-2-oxyimino)acetamido]-3-(2-methylaminothiazolio)methyl-3-cephem-4-carboxylate] | 5.5 µg/mL (≈ 9.46 µM) | 0.4 µg/mL (≈ 0.688 µM) | 13 µg/mL (≈ 22.3 µM) | 7.2 µg/mL (≈ 12.4 µM) | 3.6 µg/mL (≈ 6.19 µM) | 25 µg/mL (≈ 43 µM) | – | – |
| CSc1scc(C)[n+]1CC1=C(C(=O)[O-])N2C(=O)C(NC(=O)/C(=N\OC(C)(C)C(=O)O)c3csc(N)n3)[C@H]2SC1 (stereo partly shown) [Example 16, 7-[(Z)-2-(2-Aminothiazol-4-yl)-2-(2-carboxyprop-2-oxyimino)acetamido]-3-(4-methyl-2-methylthiothiazolio)methyl-3-cephem-4-carboxylate] | 0.79 µg/mL (≈ 1.29 µM) | 0.1 µg/mL (≈ 0.163 µM) | 2.8 µg/mL (≈ 4.57 µM) | 4.2 µg/mL (≈ 6.85 µM) | – | 19 µg/mL (≈ 31 µM) | 0.53 µg/mL (≈ 0.865 µM) | – |
| C#CCO/N=C(\C(=O)NC1C(=O)N2C(C(=O)[O-])=C(C[n+]3ccsc3SC)CS[C@H]12)c1csc(N)n1 (stereo partly shown) [Example 17, 7-[(Z)-2-(2-Aminothiazol-4-yl)-2-propargyloxyiminoacetamido]-3-(2-methylthiothiazolio)methyl-3-cephem-4-carboxylate] | 0.6 µg/mL (≈ 1.09 µM) | – | 6.9 µg/mL (≈ 12.5 µM) | – | 0.69 µg/mL (≈ 1.25 µM) | – | – | MIC [2]: 0.8 µg/mL (≈ 1.45 µM); MIC [16]: 0.66 µg/mL (≈ 1.2 µM); MIC [18]: 0.23 µg/mL (≈ 0.418 µM) |
